# Laboratory results: patent US11021481B2, “Substituted isoindolin-1-ones and 2,3-dihydro-1h-pyrrolo[3,4-c]pyridin-1-ones as HPK1 antagonists” (Nimbus Saturn, Inc., priority 2019, dated 2021)
# Target: HPK1 (Homo sapiens (Human), UniProt Q92918)
# Experiment: HPK1 biochemical enzyme assay (microfluidic mobility shift assay)
# Conditions: 1.5 nM HPK1, ATP 1 mM final, 30 min preincubation, 60 min at RT, Caliper EZ Reader; read-out: HPK1 1000UMATP caliper IC50
# Procedure, shortened: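 Ten-point compound titrations (top 3 μM final) preincubated 30 min with HPK1 and substrate, then reaction started with 1 mM ATP and 1 μM substrate, 5 mM MgCl2. After 60 min at RT, reaction terminated and product measured by microfluidic mobility shift.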
# Sequence of HPK1 (Q92918 whole entry): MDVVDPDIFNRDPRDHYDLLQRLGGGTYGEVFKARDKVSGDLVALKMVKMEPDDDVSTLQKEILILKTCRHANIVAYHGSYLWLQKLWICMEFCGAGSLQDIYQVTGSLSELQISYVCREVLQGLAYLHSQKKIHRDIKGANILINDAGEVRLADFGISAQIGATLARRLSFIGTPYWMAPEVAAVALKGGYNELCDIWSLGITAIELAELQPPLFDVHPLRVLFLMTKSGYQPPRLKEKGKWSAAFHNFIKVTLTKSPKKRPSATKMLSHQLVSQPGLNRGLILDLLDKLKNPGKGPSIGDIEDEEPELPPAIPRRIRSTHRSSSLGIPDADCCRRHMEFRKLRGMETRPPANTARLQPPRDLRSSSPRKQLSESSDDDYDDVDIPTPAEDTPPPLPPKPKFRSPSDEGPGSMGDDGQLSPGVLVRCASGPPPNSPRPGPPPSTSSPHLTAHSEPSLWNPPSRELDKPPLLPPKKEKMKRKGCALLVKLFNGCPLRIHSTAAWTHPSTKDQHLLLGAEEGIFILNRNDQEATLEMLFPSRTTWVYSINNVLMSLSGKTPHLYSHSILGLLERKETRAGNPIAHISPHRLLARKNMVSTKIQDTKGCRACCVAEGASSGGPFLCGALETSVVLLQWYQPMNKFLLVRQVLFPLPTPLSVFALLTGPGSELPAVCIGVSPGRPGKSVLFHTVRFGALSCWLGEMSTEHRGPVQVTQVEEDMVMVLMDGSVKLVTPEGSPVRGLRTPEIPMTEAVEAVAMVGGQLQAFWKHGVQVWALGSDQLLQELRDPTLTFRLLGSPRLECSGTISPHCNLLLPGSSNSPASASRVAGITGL
row,SMILES,IC50 [nM]
1,"Cc1cnn2c(-c3ccc(Nc4ccc([C@@H]5CCOC5)c(CN(C)C)n4)c4c3CNC4=O)cnc2c1 [I-538, (S)-7-((6-((dimethylamino)-methyl)-5-(tetrahydrofuran-3-yl)pyridin-2-yl)amino)-4-(7-methylimidazo [1,2-b]pyridazin-3-yl)isoindolin-1-one]",< 100
2,"CN(C)Cc1nc(Nc2ccc(-c3cnc4cc(F)ccn34)c3c2C(=O)NC3)ccc1O[C@H]1CCOC1 [I-544, 7-[[6-[(dimethylamino)-methyl]-5-[(3S)-tetrahydrofuran-3-yl]oxy-2-pyridyl]amino]-4-(7-fluoroimidazo [1,2-a]pyridin-3-yl)isoindolin-1-one]",< 100
3,"CN(C)Cc1nc(Nc2ccc(-c3ccnc4c3ccn4C)c3c2C(=O)NC3)ccc1[C@@H]1CCOC1 [I-545, (S)-7-((6-((dimethylamino)-methyl)-5-(tetrahydrofuran-3-yl)pyridin-2-yl)amino)-4-(1-methyl-1H-pyrrolo[2,3-b]pyridin-4-yl)isoindolin-1-one]",< 100
4,"CN(C)Cc1nc(Nc2ccc(-c3ccnc4c3ccn4C)c3c2C(=O)NC3)ccc1[C@H]1CCOC1 [I-546, (R)-7-((6-((dimethylamino)-methyl)-5-(tetrahydrofuran-3-yl)pyridin-2-yl)amino)-4-(1-methyl-1H-pyrrolo[2,3-b]pyridin-4-yl)isoindolin-1-one]",< 100
5,"CN(C)Cc1nc(Nc2cnc(-c3cccc4c3ccn4C)c3c2C(=O)NC3)ccc1[C@H]1CCOC1 [I-547, (R)-7-((6-((dimethylamino)-methyl)-5-(tetrahydrofuran-3-yl)pyridin-2-yl)amino)-4-(1-methyl-1H-indol-4-yl)-2,3-dihydro-1H-pyrrolo[3,4-c]pyridin-1-one]",< 100
6,"COC1CN(Cc2nc(Nc3ccc(-c4cnc5cc(F)ccn45)c4c3C(=O)NC4)ccc2[C@H]2CCOC2)C1 [I-548, (R)-4-(7-fluoroimidazo [1,2-a]pyridin-3-yl)-7-((6-((3-methoxyazet-idin-1-yl)methyl)-5-(tetrahydrofuran-3-yl)pyridin-2-yl)amiiio)isoin-dolin-1-one]",< 100
7,"COC1CN(Cc2nc(Nc3ccc(-c4cnc5cc(F)ccn45)c4c3C(=O)NC4)ccc2[C@@H]2CCOC2)C1 [I-549, (S)-4-(7-fluoroimidazo [1,2-a]pyridin-3-yl)-7-((6-((3-methoxyaze-tidin-1-yl)methyl)-5-(tetrahydrofuran-3-yl)pyridin-2-yl)amino)isoin-dolin-1-one]",< 100
8,CN(C)Cc1nc(Nc2ccc(-c3cnc4cc(F)ccn34)c3c2C(=O)NC3)ccc1[C@H]1CCCOC1 [I-550],< 100
9,CN(C)Cc1nc(Nc2ccc(-c3cnc4cc(F)ccn34)c3c2C(=O)NC3)ccc1[C@@H]1CCCOC1 [I-551],< 100
10,"CN(C)Cc1nc(Nc2ccc(-c3cnc4cc(F)ccn34)c3c2C(=O)NC3)ccc1OC1CCOCC1 [I-553, 7-[[6-[(dimethylamino)-methyl]-5-tetrahydropy-ran-4-yloxy-2-pyridyl]amino]-4-(7-fluoroimidazo [1,2-a]pyridin-3-yl)isoindolin-1-one]",< 100
11,"CN(C)Cc1nc(Nc2ccc(-c3cnc4cc(F)ccn34)c3c2C(=O)NC3)ccc1[C@H]1CCCO1 [I-554, (R)-7-((6-((dimethylamino)-methyl)-5-(tetrahydrofuran-2-yl)pyridin-2-yl)amino)-4-(7-fluoroimidazo [1,2-a]pyridin-3-yl)isoindolin-1-one]",< 100
12,CN(C)Cc1nc(Nc2ccc(-c3cnc4cc(F)ccn34)c3c2C(=O)NC3)ccc1N1CC[C@H](O)C1 [I-555],< 100
13,"CN(C)Cc1nc(Nc2ccc(-c3cnc4cc(F)ccn34)c3c2C(=O)NC3)ccc1[C@H]1CCN(C)C(=O)C1 [I-556, (S)-7-((6-((dimethylamino)-methyl)-5-(1-methyl-2-oxopiperidin-4-yl)pyridin-2-yl)amino)-4-(7-fluoroimidazo [1,2-a]pyridin-3-yl)isoindolin-1-one]",< 100
14,"CN(C)Cc1nc(Nc2ccc(-c3cnc4cc(F)ccn34)c3c2C(=O)NC3)ccc1[C@@H]1CCN(C)C(=O)C1 [I-557, (R)-7-((6-((dimethylamino)-methyl)-5-(1-methyl-2-oxopiperidin-4-yl)pyridin-2-yl)amino)-4-(7-fluoroimidazo [1,2-a]pyridin-3-yl)isoindolin-1-one]",< 100
15,"CN1CCC(C)(c2cccc(Nc3cnc(-c4ccnc5c4ccn5C)c4c3C(=O)NC4)n2)CC1 [I-575, 7-((6-(l,4-dimethyl-piperidin-4-yl)pyridin-2-yl)amino)-4-(1-methyl-1H-pyrrolo[2,3-b]pyridin-4-yl)-2,3-dihydro-1H-pyrrolo[3,4-c]pyridin-1-one]",100 to 1000

# The next lines start with the values.
row,IC50 [nM],SMILES
1,< 100,CC(C)NCc1nc(Nc2ccc(-c3cnc4cc(F)ccn34)c3c2C(=O)NC3)ccc1[C@@H]1CCOC1 [I-558]
2,< 100,"CC(C)NCc1nc(Nc2ccc(-c3cnc4cc(F)ccn34)c3c2C(=O)NC3)ccc1[C@H]1CCOC1 [I-559, (R)-4-(7-fluoroimidazo [1,2-a]pyridin-3-yl)-7-((6-((isopropylamino)-methyl)-5-(tetrahydrofuran-3-yl)pyridin-2-yl)amino)isoin-dolin-1-one]"
3,< 100,"CN(C)Cc1nc(Nc2ccc(-c3cnc4cc(F)ccn34)c3c2C(=O)NC3)ccc1[C@@H]1CCCO1 [I-560, (S)-7-((6-((dimethylamino)-methyl)-5-(tetrahydrofuran-2-yl)pyridin-2-yl)amino)-4-(7-fluoroimidazo [1,2-a]pyridin-3-yl)isoindolin-1-one]"
4,< 100,"CN(C)C(C)(C)C1CN(c2ccc(Nc3ccc(-c4cnc5cc(F)ccn45)c4c3C(=O)NC4)nc2)CCO1 (stereo not shown) [I-564, 7-((5-(2-(2-(dimethylami-no)propan-2-yl)morpholino)pyridin-2-yl)amino)-4-(7-fluoroimidazo [1,2-a]pyridin-3-yl)isoindolin-1-one]"
5,> 1000,"O=C1NCc2c(-c3ccnn4ccnc34)ncc(Nc3ccc(N4CCC(O)CC4)cn3)c21 [I-565, 7-((5-(4-hydroxypiperidin-1-yl)pyridin-2-yl)amino)-4-(imidazo[1,2-b]pyridazin-8-yl)-2,3-dihydro-1H-pyrrolo[3,4-c]pyridin-1-one]"
6,< 100,"Cn1nc(Nc2ccc(-c3cnc4cc(F)ccn34)c3c2C(=O)NC3)cc1C1(O)CCOCC1 [I-566, 4-(7-fluoroimidazo [1,2-a]pyridin-3-yl)-7-((5-(4-hydroxytetrah-ydro-2H-pyran-4-yl)-1-methyl-1H-pyrazol-3-yl)amino)isoin-dolin-1-one]"
7,< 100,"CN(C)C[C@]1(O)CCCN(c2ccc(Nc3ccc(-c4cnc5cc(F)ccn45)c4c3C(=O)NC4)nc2)C1 [I-567, (R)-7-((5-(3-((dimethylamino)-methyl)-3-hydroxypiperidin-1-yl)pyridin-2-yl)amino)-4-(7-fluoroimidazo [1,2-a]pyridin-3-yl)isoindolin-1-one]"
8,< 100,"CN(C)C[C@@]1(O)CCCN(c2ccc(Nc3ccc(-c4cnc5cc(F)ccn45)c4c3C(=O)NC4)nc2)C1 [I-568, (S)-7-((5-(3-((dimethylamino)-methyl)-3-hydroxypiperidin-1-yl)pyridin-2-yl)amino)-4-(7-fluoroimidazo [1,2-a]pyridin-3-yl)isoindolin-1-one]"
9,< 100,"CO[C@H]1CC[C@H](CO)N(c2ccc(Nc3ccc(-c4cnn5c4CCCC5)c4c3C(=O)NC4)nc2)C1 [I-571, 7-((5-((2R,5S)-2-(hydroxymeth-yl)-5-methoxy-piperidin-1-yl)pyridin-2-yl)amino)-4-(4,5,6,7-tetrahydropyra-zolo[1,5-a]pyridin-3-yl)isoindolin-1-one]"
10,< 100,"COC[C@@H]1CN(c2ccc(Nc3ccc(-c4cnc5c(F)c(C)ccn45)c4c3C(=O)NC4)nc2)CCO1 [I-579, (S)-4-(8-fluoro-7-methylimidazo [1,2-a]pyridin-3-yl)-7-((5-(2-(methoxymeth-yl)morpho-lino)pyridin-2-yl)amino)isoin-dolin-1-one]"
11,< 100,"COC[C@H]1CN(c2ccc(Nc3ccc(-c4cnc5c(F)c(C)ccn45)c4c3C(=O)NC4)nc2)CCO1 [I-580, (R)-4-(8-fluoro-7-methylimidazo [1,2-a]pyridin-3-yl)-7-((5-(2-(methoxymeth-yl)morpho-lino)pyridin-2-yl)amino)isoin-dolin-1-one]"
12,< 100,"CN(C)C(C)(C)C1CCCN(c2ccc(Nc3ccc(-c4cnc5cc(F)ccn45)c4c3C(=O)NC4)nc2)C1 (stereo not shown) [I-582, 7-((5-(3-(2-(dimethylami-no)propan-2-yl)piperidin-1-yl)pyridin-2-yl)amino)-4-(7-fluoroimidazo [1,2-a]pyridin-3-yl)isoindolin-1-one]"
13,< 100,"Cc1ccn2c(-c3ccc(Nc4ccc(N5CC[C@@H](F)[C@H](O)C5)cn4)c4c3CNC4=O)cnc2c1F [I-583, 7-((5-((3R,4R]-4-fluoro-3-hydroxypiperidin-1-yl)pyridin-2-yl)amino)-4-(8-fluoro-7-methylimidazo [1,2-a]pyridin-3-yl)isoindolin-1-one]"
14,< 100,"Cc1ccn2c(-c3ccc(Nc4ccc(N5CC[C@H](F)[C@@H](O)C5)cn4)c4c3CNC4=O)cnc2c1F [I-584, 7-((5-((3S.4S)-4-fluoro-3-hydroxypiperidin-1-yl)pyridin-2-yl)amino)-4-(8-fluoro-7-methylimidazo [1,2-a]pyridin-3-yl)isoindolin-1-one]"
15,< 100,"Cc1ccn2c(-c3ccc(Nc4ccc(C5(O)CCOCC5)cn4)c4c3CNC4=O)cnc2c1F [I-587, 4-(8-fluoro-7-methylimidazo [1,2-a]pyridin-3-yl)-7-((5-(4-hydroxytetra-hydro-2H-pyran-4-yl)pyridin-2-yl)amino)isoin-dolin-1-one]"
16,> 1000,"O=C1NCc2c(-c3ccnn4cccc34)ncc(Nc3ccc(N4CCC(O)CC4)cn3)c21 [I-588, 7-((5-(4-hydroxypiperidin-1-yl)pyridin-2-yl)amino)-4-(pyrrolo[1,2-b]pyridazin-4-yl)-2,3-dihydro-1H-pyrrolo[3,4-c]pyridin-1-one]"
